From patent publication US10793840B2, “Identifying ligands for bacterial sensors” (William Marsh Rice University, priority 2015, dated 2020)

Key:
[1] = tested on: BAD_0569/BAD_0568-CcaR TCS; settings: E. coli expressing BAD_0569 and BAD_0568-CcaR, sfGFP from PcpcG2; panel of over 40 gut chemicals
Description: Briefly, the wild type BAD_0569 SK of Bifidobacterium adolescent was expressed in E. coli. A modified cognate response regulator BAD_0568 was simultaneously expressed in E. coli, wherein the native DBD from the Bifidobacterium adolescentis RR was replaced with that of the DBD from the well-characterized OmpR-PhoB family RR CcaR. When phosphorylated, native CcaR activates transcription from PcpcG2, or its derivatives. A superfolder GFP reporter gene (a.k.a. GFP) was expressed from PcpcG2 in the same E. coli. Anydrotetracyline (aTc) induces expression of the BAD_0568-CcaR hybrid, which activates PcpcG2 transcription and thus GFP expression.
We then tested E. coli expressing the hybrid BAD_0569/8 TCS (i.e. BAD_0569 and BAD_0568-CcaR with sfGFP expressed from PcpcG2) in the presence of over 40 chemicals previously found to be enriched in the large intestines of germ-free mice made to carry gut bacteria of obese humans, but not found to be enriched in those mice carrying the gut bacteria of their lean twins.

[2] = tested on: NarL / PdcuS promoter; settings: PdcuS promoter repressed by phosphorylated NarL, sfGFP; cited from earlier work

Row | SMILES | response of rewired BAD_0569/8 TCS (sfGFP reporter) to the chemical [1] | sensitivity of the sensor [2]
1 | CSCC[C@H](N)C(=O)O [methionine] | largest response | 
2 | O=[N+]([O-])O [nitrate] |  | The sensitivity of the sensor is in the sub-mM to mM range for nitrate.
